{"source": "patent US20140303074A1", "about": "“Compositions and Methods For Inhibiting Immunodeficiency Virus Transcription” (The J. David Gladstone Institutes, priority 2011, published 2014)", "key": {"recombinant p300": {"target": "recombinant p300 (Homo sapiens, UniProt Q09472)", "sequence (Q09472 whole entry, species assumed)": "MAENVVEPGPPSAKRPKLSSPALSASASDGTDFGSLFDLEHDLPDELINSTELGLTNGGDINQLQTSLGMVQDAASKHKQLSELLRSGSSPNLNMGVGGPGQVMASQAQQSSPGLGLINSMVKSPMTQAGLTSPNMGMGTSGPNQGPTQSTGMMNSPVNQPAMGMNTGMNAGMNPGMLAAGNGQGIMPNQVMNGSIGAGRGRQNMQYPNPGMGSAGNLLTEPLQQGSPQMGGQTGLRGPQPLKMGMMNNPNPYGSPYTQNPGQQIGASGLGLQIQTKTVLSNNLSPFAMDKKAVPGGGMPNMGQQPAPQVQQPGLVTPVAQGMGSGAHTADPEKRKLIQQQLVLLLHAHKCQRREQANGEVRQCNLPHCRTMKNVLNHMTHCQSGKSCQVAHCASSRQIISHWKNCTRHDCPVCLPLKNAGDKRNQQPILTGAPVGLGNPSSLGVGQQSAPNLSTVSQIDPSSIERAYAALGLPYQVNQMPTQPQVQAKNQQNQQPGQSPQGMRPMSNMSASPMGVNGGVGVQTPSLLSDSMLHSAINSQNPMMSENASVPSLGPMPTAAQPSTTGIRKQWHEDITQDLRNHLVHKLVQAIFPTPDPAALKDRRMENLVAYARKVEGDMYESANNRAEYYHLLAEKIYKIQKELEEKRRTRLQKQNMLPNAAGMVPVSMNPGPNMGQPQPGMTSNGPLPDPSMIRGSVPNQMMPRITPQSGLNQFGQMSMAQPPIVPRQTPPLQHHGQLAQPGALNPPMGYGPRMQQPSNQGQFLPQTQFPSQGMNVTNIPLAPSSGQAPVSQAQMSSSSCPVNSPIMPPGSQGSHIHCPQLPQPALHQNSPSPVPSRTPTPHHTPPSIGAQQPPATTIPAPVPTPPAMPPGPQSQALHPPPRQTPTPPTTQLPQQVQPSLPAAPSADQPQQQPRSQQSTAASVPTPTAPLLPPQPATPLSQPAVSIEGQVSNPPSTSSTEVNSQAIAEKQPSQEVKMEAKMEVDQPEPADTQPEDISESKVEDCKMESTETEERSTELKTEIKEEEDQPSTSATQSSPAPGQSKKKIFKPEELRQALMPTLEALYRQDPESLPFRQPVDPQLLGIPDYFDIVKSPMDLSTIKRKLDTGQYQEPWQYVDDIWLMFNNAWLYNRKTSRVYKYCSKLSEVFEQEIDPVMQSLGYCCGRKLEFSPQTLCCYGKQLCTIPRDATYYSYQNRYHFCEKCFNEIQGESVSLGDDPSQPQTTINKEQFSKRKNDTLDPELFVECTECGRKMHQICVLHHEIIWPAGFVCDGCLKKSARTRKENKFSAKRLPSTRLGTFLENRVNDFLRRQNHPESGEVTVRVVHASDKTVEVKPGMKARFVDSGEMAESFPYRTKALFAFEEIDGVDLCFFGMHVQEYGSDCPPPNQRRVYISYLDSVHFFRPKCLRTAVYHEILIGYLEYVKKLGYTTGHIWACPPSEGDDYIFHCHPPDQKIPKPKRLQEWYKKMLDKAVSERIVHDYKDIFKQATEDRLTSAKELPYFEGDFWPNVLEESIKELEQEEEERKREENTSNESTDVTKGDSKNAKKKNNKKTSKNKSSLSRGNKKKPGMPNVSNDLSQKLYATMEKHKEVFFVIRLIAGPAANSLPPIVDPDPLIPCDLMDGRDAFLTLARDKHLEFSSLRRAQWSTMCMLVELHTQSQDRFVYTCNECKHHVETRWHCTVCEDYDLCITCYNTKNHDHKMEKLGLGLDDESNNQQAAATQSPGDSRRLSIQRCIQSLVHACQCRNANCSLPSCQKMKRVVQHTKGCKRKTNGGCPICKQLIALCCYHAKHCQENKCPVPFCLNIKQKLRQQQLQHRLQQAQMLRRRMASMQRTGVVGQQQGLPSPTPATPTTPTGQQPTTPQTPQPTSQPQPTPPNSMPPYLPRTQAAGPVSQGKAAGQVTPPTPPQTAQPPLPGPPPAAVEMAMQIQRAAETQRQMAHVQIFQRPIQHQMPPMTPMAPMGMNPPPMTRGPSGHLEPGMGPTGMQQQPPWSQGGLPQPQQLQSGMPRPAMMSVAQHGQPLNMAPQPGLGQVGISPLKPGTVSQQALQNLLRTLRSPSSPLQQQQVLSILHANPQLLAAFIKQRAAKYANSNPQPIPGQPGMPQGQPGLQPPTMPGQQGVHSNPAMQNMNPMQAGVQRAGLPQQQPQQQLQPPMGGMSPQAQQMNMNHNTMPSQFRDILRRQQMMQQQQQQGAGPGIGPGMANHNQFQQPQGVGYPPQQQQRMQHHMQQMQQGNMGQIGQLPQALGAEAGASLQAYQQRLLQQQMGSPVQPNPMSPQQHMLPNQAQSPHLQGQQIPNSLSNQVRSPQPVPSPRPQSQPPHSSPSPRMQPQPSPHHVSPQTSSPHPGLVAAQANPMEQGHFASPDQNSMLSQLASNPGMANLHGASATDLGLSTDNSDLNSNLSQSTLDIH", "assay": "In vitro HAT assay (histone acetylation, 14C acetyl CoA, autoradiography)", "assay_type": "biochemical", "conditions": "1 μg recombinant p300, 10 μg Histone, pre-incubation 30° C. 30 min, densitometry; read-out: IC50 of inhibition of histone acetylation by p300", "description": "1 μg of HAT proteins (p300, CBP, pCAF, GCN5) and 10 μg of Histone were pre-incubated with or without sodium salicylate at various doses in an appropriate buffer (50 mM Hepes, pH 8.0, 10% Glycerol, 1 mM dithiothreitol (DTT)) at 30° C. for 30 min. After the pre-incubation period, 0.05 μCi of ^14C labeled acetyl CoA was added; the mixture was incubated for 1 hour. Samples were subjected to sodium dodecyl sulfate-polyacrylamide electrophoresis (SDS-PAGE). After electrophoresis, the gels were dried. Acetylation signals were detected in the dried gels by autoradiography. Band densities were measured by Image™ software (http://rsbweb(dot)nih(dot)gov/ij/); and the relative histone acetylation was plotted.\n1 μg of recombinant p300 and 10 μg of Histone were pre-incubated with or without diflunisal at various doses in an appropriated buffer (50 mM Hepes, pH 8.0, 10% Glycerol, 1 mM DTT) at 30° C. for 30 min. 0.05 μCi of ^14C-labeled acetylCoA was then added, and the mixture was incubated for 1 hour. Histones were separated by SDS-PAGE (FIG. 1, bottom panel). Acetylation of Histone H3 and H4 were detected by autoradiography (FIG. 1, middle panel). […] Three different experimental systems were used to test the effect of diflunisal on HIV transcription and replication."}, "[1]": {"system": "replication-competent NL4-3/GFP virus", "assay": "HIV replication assay (GFP positive cells by flow cytometry)", "assay_type": "cell-based", "conditions": "activated CD4 T-cells, MOI of 0.3, 50 μM, or 100 μM diflunisal, collected every 2 to 3 days"}, "[2]": {"system": "p300- and Tat-mediated transactivation of HIV transcription", "assay": "HIV-1 LTR luciferase reporter assay in Hela cells co-transfected with Tat and p300", "assay_type": "cell-based", "description": "An HIV-1 LTR promoter plasmid linked to a luciferase reporter plasmid, with or without the expression vector for HIV-1 Tat and p300, was transfected into cells. Cells were treated with sodium salicylate at same time of transfection. 36 hours later, the cells were lysed with passive lysis buffer (Promega), and luciferase activity was measured using a luminometer.\nThe effect of diflunisal on HIV transcription was tested. A plasmid containing HIV-1 driving the luciferase reporter was co-transfected into Hela cells with or without expression vectors encoding Tat and/or p300. Co-transfection of the HIV LTR with either Tat or p300 enhanced LTR activity 4 fold (FIG. 2) and 12 fold (FIG. 2) respectively. Co-expression of both Tat and p300 synergistically activated the HIV promoter 48 fold (FIG. 2). […] The IC50 for this inhibition was 80 μM."}, "[3]": {"system": "VSV-G envelope pseudotyped NL4-3 luciferase reporter viruses", "assay": "microbe, parasite or virus in culture", "assay_type": "cell-based, HIV"}, "[4]": {"conditions": "cited from earlier work"}, "Activated CD4 T-cells": {"system": "Activated CD4 T-cells", "assay": "Cell toxicity in the HIV replication assay (FIG. 4A)", "conditions": "50 μM, or 100 μM diflunisal"}}, "data": [{"molecule": "O=C(O)c1cc(-c2ccc(F)cc2F)ccc1O", "note": "[Diflunisal, 2′,4′-difluoro-4-hydroxy-3-biphenylcarboxylic acid]", "values": [{"measurement": "IC50", "setting": "recombinant p300", "value": 1240, "unit": "µM"}, {"measurement": "Percentage of infected cells (GFP positive cells), FIG. 4B", "setting": "[1]", "value": "suppressed and delayed peak of infection in a dose dependent manner"}, {"measurement": "IC50", "setting": "[2]; Human immunodeficiency virus 1, HeLa, read-out: IC50 for inhibition of p300- and Tat-mediated transactivation of HIV transcription", "value": 80, "unit": "µM"}, {"measurement": "Block of p300- and Tat-mediated transactivation of HIV transcription", "setting": "[2]; at 0.3 mM, Hela cells", "value": "completely blocked"}, {"measurement": "Inhibition of HIV infection (FIG. 3)", "setting": "[3]", "value": "inhibited HIV infection in a dose dependent manner"}, {"measurement": "IC50", "setting": "[3]; Human immunodeficiency virus 1, NL43, T-cell, 24 h, read-out: IC50 for inhibition of HIV infection", "value": 148, "unit": "µM"}, {"measurement": "Plasma trough concentrations", "setting": "[4]; clinical dosage 0.5-1.0 gram per day", "value": "100 to 300", "unit": "µM"}, {"measurement": "Bioavailability", "setting": "[4]; in vivo", "value": "80-90%"}, {"measurement": "Half-life", "setting": "[4]; in vivo", "value": "8 to 12", "unit": "h"}, {"measurement": "Cell toxicity (FIG. 4A)", "setting": "Activated CD4 T-cells", "value": "did not show cell toxicity"}]}]}
